Values quoted from earlier work as cited in patent publication US20050163829A1, “Device and patch for controlled release of vanillin” (priority 2001, published 2005).

What was measured:
[1] = tested on: nicotinic acetylcholine receptor (nACh)
[2] = tested on: glutamate receptors (NMDA)

Compound	effect on the GABA receptor (GABA receptor)	effect on the nicotinic acetylcholine receptor (nACh) [1]	effect on the glutamate receptor KA (glutamate receptors (KA))	effect on the glutamate receptor NMDA [2]
COc1cc(C=O)ccc1O [Vanillin, 3 methoxy-4 hydroxybenzaldehyde]	inhibited	inhibited	inhibitory effect	inhibitory effect
CCCCOC(C)=O [butyl acetate]	stimulate	–	–	–
CC(C)=CCC/C(C)=C/CO [geraniol]	stimulate	–	–	–
